Reference: US20230174523A1, “BENZENESULFONAMIDE DERIVATIVES AS TRAP1 MODULATORS AND USES THEREOF” (Amathus Therapeutics, Inc., priority 2020, published 2023)

Assays:
TRAP1 enzyme = target: T1, TRAP1 enzyme (Homo sapiens, UniProt Q12931); assay: ADP Glo assay of TRAP1 ATPase activity; format: biochemical
T1 sequence (Q12931 60-704): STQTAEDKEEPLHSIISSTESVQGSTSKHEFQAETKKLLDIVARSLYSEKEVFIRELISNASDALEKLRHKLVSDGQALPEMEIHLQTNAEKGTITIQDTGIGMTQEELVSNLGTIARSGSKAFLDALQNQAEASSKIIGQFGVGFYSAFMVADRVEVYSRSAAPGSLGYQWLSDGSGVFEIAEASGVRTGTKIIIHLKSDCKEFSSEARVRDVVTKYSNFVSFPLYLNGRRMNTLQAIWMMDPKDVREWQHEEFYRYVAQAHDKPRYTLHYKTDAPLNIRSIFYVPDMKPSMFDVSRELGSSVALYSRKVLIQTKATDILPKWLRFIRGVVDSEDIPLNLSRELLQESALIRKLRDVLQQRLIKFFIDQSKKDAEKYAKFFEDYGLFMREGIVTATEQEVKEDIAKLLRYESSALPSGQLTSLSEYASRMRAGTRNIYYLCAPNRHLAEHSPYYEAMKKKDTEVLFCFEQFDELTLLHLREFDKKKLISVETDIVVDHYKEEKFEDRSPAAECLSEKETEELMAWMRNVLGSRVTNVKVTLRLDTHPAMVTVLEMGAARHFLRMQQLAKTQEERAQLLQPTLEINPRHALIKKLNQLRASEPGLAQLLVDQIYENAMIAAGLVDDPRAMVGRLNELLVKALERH
Procedure, shortened: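 150 nM TRAP1 preincubated with compound (0.79–100 μM) 30 min at 37° C in Pipes pH 7.5 buffer (0.05 mM MgCl2, 40 mM KCl), then 20 μM ATP added for 60 min at 37° C. ADP quantified by ADP-Glo luminescence against ATP/ADP standard curve. Emax and EC50 from sigmoidal fit.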

mIMCD3 Pkd1−/− cells = assay: Mouse cell derived cyst assay; format: cell-based; conditions: PKD KO mouse cell derived cyst forming assay; FIG. 13
Method: Mouse cell derived cyst assays were performed as described in Booij, Tijmen H et al., SLAS discovery: advancing life sciences R & D vol. 22.8 (2017): 974-984, or as described below.
Murine inner medullary collecting duct cell line (mIMCD3 Pkd1^−/− cells) • mIMCD3 Pkd1 KO cells were seeded in 384 wells plates in extracellular matrix. • 4 days after seeding, cultures were co-exposed to treatments and stimuli (2.5 μM forskolin); • After 72 h, cultures were fixed, stained for nuclei and actin cytoskeleton and imaged with 4× magnification; and • Image analysis of the 3D stack was done using Ominer™ image analysis software.

[1] = system: primary rat TH+ dopaminergic neurons; assay: Survival, neurite network, CytC release and aSyn aggregation of TH+ dopaminergic neurons injured with MPP+; format: cell-based
Method: Rat dopaminergic neurons were cultured as described by Visanji et al., 2008. Briefly, pregnant female rat of 15 days of gestation are sacrificed using a deep anesthesia with CO2 chamber and a cervical dislocation. The midbrains obtained from 15-day-old rat embryos are dissected under a microscope. The embryonic midbrains are removed and placed in ice-cold medium of Leibovitz (L15) containing 2% of Penicillin-Streptomycin (PS) and 1% of bovine serum albumin (BSA). The ventral portion of the mesencephalic flexure, a region of the developing brain rich in dopaminergic neurons, is used for the cell preparations.
The midbrains are dissociated by trypsinisation for 20 min at 37° C. (solution at a final concentration of 0.05% trypsin and 0.02% EDTA). […] Viable cells are counted in a Neubauer cytometer using the trypan blue exclusion test. […] Six wells per condition are assessed.
For each condition, 20 pictures at 10× magnification (plate 1) or 30 pictures at 20× magnification (representing the whole well area) were automatically taken using ImageXpress®. […] The following read-outs were measured: Analysis of total number of TH neurons (TH positive neuron number), Analysis of the ROS into TH positive neurons, Analysis of caspase 3 positive TH neurons, and Analysis of total neurite network of TH positive neurons (in μm).
All values are expressed as mean+/−SEM (standard error of the mean). […]

`Cc1nn(C)c2sc(C(=O)Nc3ccc(F)c(S(=O)(=O)Nc4ccc(Cl)cc4)c3)cc12` [Compound 705] was tested, and the EC50 (TRAP1 enzyme; TRAP1 ATPase activation, 150 nM Trap1, 20 μM ATP, geometric mean, read-out: ADP GLO DRC: GeoMean EC50) was 10 to 20 µM, the Emax (TRAP1 enzyme; read-out: ADP GLO DRC: Mean Emax) was 160 to 199% and the cyst formation (mIMCD3 Pkd1−/− cells) was “preventing cyst formation”. For the same compound, the “neurite network of TH+ dopaminergic neurons” value ([1]; injury with MPP+ (4 μM, 24 h), FIG. 8) was “protection of the neurite network” and the “neurite network of TH+ dopaminergic neurons” value ([1]; injury with MPP+ (4 μM, 48 h), FIG. 11) was “protection of neurite network”.
